Measurements reported in ChEMBL document CHEMBL1201862, “PubChem BioAssay data set” (2004).
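A five-concentration, 48-hour dose response in 96-well plates underlies each endpoint, interpolated linearly between surrounding concentrations. GI50: concentration for 50% inhibition of growth.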 Active and inactive are the calls of the source. Cut-off read from the data, not from the text of the source: active = GI50 up to about 1.1 µM and inactive = higher.

Legend:
Test in all cases: NCI anticancer screen, dose series, 48 h
OVCAR-3 = tested on: OVCAR-3
SF-268 = tested on: SF-268
M14 = tested on: M14
SN12C = tested on: SN12C
SF-295 = tested on: SF-295
KM12 = tested on: KM12
ACHN = tested on: ACHN
NCI-H226 = tested on: NCI-H226
SNB-75 = tested on: SNB-75
SR = tested on: SR
UO-31 = tested on: UO-31
SK-MEL-28 = tested on: SK-MEL-28
HCC 2998 = tested on: HCC 2998
SF-539 = tested on: SF-539
KM-20L2 = tested on: KM-20L2
NCI-H23 = tested on: NCI-H23
UACC-257 = tested on: UACC-257

Measured: GI50

Cc1ccc(NC(=O)C(=O)CC(=O)c2c(C)[n+]([O-])c3ccccc3[n+]2[O-])cc1C
inactive: OVCAR-3 48.4 µM | SF-268 > 100 µM | M14 74.8 µM | SN12C > 100 µM | SF-295 > 100 µM | KM12 > 100 µM | ACHN > 100 µM | NCI-H226 > 100 µM | SNB-75 > 100 µM | SR 33.5 µM | UO-31 > 100 µM | SK-MEL-28 > 100 µM | HCC 2998 > 100 µM | SF-539 > 100 µM | KM-20L2 91.8 µM | NCI-H23 > 100 µM | UACC-257 > 100 µM

Cc1ccccc1NC(=O)C1C(=O)N(c2ccccc2C)C(=O)/C1=N\NC(N)=O (centres undefined)
inactive: OVCAR-3 > 100 µM | SF-268 > 100 µM | M14 > 100 µM | SN12C > 100 µM | SF-295 > 100 µM | KM12 > 100 µM | ACHN > 100 µM | SNB-75 37.5 µM | SR > 100 µM | UO-31 > 100 µM | SK-MEL-28 > 100 µM | HCC 2998 > 100 µM | SF-539 > 100 µM | KM-20L2 > 100 µM | NCI-H23 > 100 µM | UACC-257 > 100 µM

C(=N\CC/N=C/c1cccc2ccccc12)/c1cccc2ccccc12
inactive: SN12C > 100 µM | SF-295 > 100 µM | KM12 > 100 µM | ACHN > 100 µM | NCI-H226 > 100 µM | SNB-75 12.6 µM | SR > 100 µM | UO-31 > 100 µM | SK-MEL-28 > 100 µM | HCC 2998 > 100 µM | SF-539 > 100 µM | KM-20L2 > 100 µM | NCI-H23 > 100 µM | UACC-257 > 100 µM

C=CCCC1(C)CCCNC1=S (centres undefined)
inactive: OVCAR-3 > 100 µM | M14 > 100 µM | SN12C > 100 µM | SF-295 > 100 µM | KM12 > 100 µM | ACHN > 100 µM | NCI-H226 > 100 µM | SNB-75 > 100 µM | SR > 100 µM | UO-31 > 100 µM | SK-MEL-28 > 100 µM | HCC 2998 > 100 µM | SF-539 > 100 µM | KM-20L2 > 100 µM | NCI-H23 > 100 µM | UACC-257 > 100 µM

CCC(C(=O)O)c1ccc(OCc2ccccc2)cc1 (centres undefined)
inactive: OVCAR-3 > 100 µM | SF-268 > 100 µM | M14 > 100 µM | SN12C > 100 µM | SF-295 > 100 µM | KM12 > 100 µM | ACHN > 100 µM | NCI-H226 > 100 µM | SNB-75 70 µM | SR > 100 µM | UO-31 21.5 µM | SK-MEL-28 > 100 µM | HCC 2998 > 100 µM | SF-539 > 100 µM | KM-20L2 > 100 µM | NCI-H23 > 100 µM | UACC-257 > 100 µM

Cc1cc2ncn(-c3nc4ccccc4nc3C(C#N)S(C)(=O)=O)c2cc1C (centres undefined)
inactive: OVCAR-3 > 100 µM | SF-268 > 100 µM | M14 > 100 µM | SN12C > 100 µM | KM12 > 100 µM | ACHN > 100 µM | NCI-H226 13.4 µM | SNB-75 > 100 µM | SR > 100 µM | UO-31 > 100 µM | SK-MEL-28 > 100 µM | HCC 2998 > 100 µM | SF-539 > 100 µM | KM-20L2 > 100 µM | NCI-H23 > 100 µM | UACC-257 > 100 µM

O=C(c1ccco1)N(C(=S)N1CCN(c2ccccn2)CC1)c1ccccc1
inactive: OVCAR-3 > 100 µM | SF-268 > 100 µM | M14 > 100 µM | SN12C > 100 µM | SF-295 > 100 µM | KM12 > 100 µM | ACHN > 100 µM | NCI-H226 18.7 µM | SNB-75 > 100 µM | SR > 100 µM | UO-31 88.7 µM | SK-MEL-28 > 100 µM | SF-539 > 100 µM | KM-20L2 > 100 µM | NCI-H23 > 100 µM | UACC-257 > 100 µM

CCOc1ccccc1NC(=O)C1=C(C)NC(C)=C(C(=O)Nc2ccccc2OCC)C1c1ccc([N+](=O)[O-])cc1
inactive: OVCAR-3 > 100 µM | SF-268 > 100 µM | M14 89.5 µM | SN12C > 100 µM | SF-295 21.3 µM | KM12 41 µM | ACHN > 100 µM | NCI-H226 21.4 µM | SNB-75 53.1 µM | SR 47.6 µM | UO-31 32.7 µM | SK-MEL-28 > 100 µM | HCC 2998 > 100 µM | SF-539 > 100 µM | KM-20L2 > 100 µM | NCI-H23 44 µM | UACC-257 31.2 µM

O=C(Nc1cccc2c1[nH]c1c(-c3ccccc3)nccc12)c1ccccc1[N+](=O)[O-]
inactive: SF-268 27.9 µM | M14 34.1 µM | SN12C 49.1 µM | SF-295 7.13 µM | KM12 9.55 µM | ACHN 20.9 µM | NCI-H226 3.74 µM | SNB-75 29.7 µM | SR 12.5 µM | SK-MEL-28 49.5 µM | HCC 2998 18.6 µM | SF-539 20.2 µM | KM-20L2 11.2 µM | NCI-H23 34.7 µM | UACC-257 74.6 µM
